Like-named read-outs stand apart in the source and are kept apart here.
Columns and labels:
H1 receptor = target: T1, H1 receptor (Cavia porcellus, UniProt P31389); assay: Histamine (H1) antagonism in guinea pig ileum; type: cell-based
T1 construct: A piece of ileum, about 20 cm in length, is removed and cut into 2 cm pieces; from tissue; host or cells: ileum of male Hartley guinea pigs
Description: Male Hartley guinea pigs, weighing 200-450 grams, are sacrificed by CO2 asphyxiation. A piece of ileum, about 20 cm in length, is removed and cut into 2 cm pieces. Each ileum piece is placed in an organ bath at 37° C. containing Tyrode's solution and is constantly aerated with 95% O2 /5%CO2. Tyrode's solution has the composition: NaCl 136.9 mM, KCl […], CaCl2 1.8 mM, NaH2 PO4 0.42 mM, NaHCO3 11.9 mM, and dextrose 5.55 mM. Contractions are measured with an isometric transducer (Grass FTO3C), and are recorded on a polygraph recorder and/or a computer. The ileum strips are loaded with 1.0 grams of tension and allowed to equilibrate for a minimum of 30 minutes before starting the experiments.
The potency of the antagonism is determined by the magnitude of the shift and is expressed as a pA2 value which is the negative logarithm of the molar concentration of antagonist which produces a two-fold shift of the dose response curve to the right. The pA2 value is calculated by using Schild analysis. O. Arunlakshana and H. O. Schild, Br. J. Pharmacol Chemother. 14, 48-58 (1958).
Table 1 presents pA2 values by the method of Example 93 which indicate potency of H1 receptor antagonism and IC50 values by the method of Example 95 which indicates NK1 receptor binding affinity for representative compounds of the present invention.

NK1 receptor = target: T2, NK1 receptor (Cavia porcellus, UniProt P30547); assay: Antagonism of iodinated tachykinin (substance P) binding to NK1 receptors in guinea pig lungs; conditions: read-out: NK1 Receptor Binding Affinity, IC50
T2 construct: as evaluated in guinea pig lungs (Keystone Biologicals, Cleveland, Ohio); tissue Keystone Biologicals, Cleveland, Ohio; host or cells: guinea pig lung membranes
T2 sequence (P30547 whole entry): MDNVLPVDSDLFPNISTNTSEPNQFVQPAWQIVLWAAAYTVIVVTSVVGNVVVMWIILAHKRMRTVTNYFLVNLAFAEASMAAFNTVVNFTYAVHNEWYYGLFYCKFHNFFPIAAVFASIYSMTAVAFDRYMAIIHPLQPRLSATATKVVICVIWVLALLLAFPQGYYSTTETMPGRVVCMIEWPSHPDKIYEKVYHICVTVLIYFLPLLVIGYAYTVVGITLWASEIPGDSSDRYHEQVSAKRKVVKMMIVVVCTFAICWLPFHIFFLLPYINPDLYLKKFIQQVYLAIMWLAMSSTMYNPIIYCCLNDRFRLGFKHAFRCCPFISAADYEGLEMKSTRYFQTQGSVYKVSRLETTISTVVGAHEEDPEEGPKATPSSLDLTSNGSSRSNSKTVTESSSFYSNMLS
Description: Antagonism of iodinated tachykinin binding to NK1 receptors by putative antagonists
One skilled in the art can measure the NK1 receptor affinity of proposed tachykinin antagonists as evaluated in guinea pig lungs (Keystone Biologicals, Cleveland, Ohio). Tissues or cells are homogenized with a Polytron in 15 volumes of 50 mM Tris-HCl buffer (pH 7.4, […]) and centrifuged. The pellet is resuspended in Tris-HCl buffer and centrifuged; the pellet is washed twice by resuspension. The final pellet is resuspended at a concentration of 40 mg/ml incubation buffer and remains at room temperature for at least 15 min prior to use. […] Incubations are performed at room temperature for 90 min; binding is terminated by addition of 50 mM Tris-HCl buffer (pH 7.4, […]) and filtration under vacuum through GF/B filters presoaked with 0.1% polyethyleneimine. Filter bound radioactivity is quantitated in a gamma counter. […] IC50 values (concentration required to inhibit 50% of receptor binding) are generated for each of the test compounds by nonlinear regression using an iterative curve fitting program (GraphPAD Inplot, San Diego, Calif.).

[1] = read-out: H1 Receptor Antagonism, pA2, in vitro (converted)
[2] = guinea pig lungs, 0.1 nM 125I-Bolton Hunter Lys-3 labeled substance P, room temperature 90 min, pH 7.4

T1 sequence (P31389 whole entry): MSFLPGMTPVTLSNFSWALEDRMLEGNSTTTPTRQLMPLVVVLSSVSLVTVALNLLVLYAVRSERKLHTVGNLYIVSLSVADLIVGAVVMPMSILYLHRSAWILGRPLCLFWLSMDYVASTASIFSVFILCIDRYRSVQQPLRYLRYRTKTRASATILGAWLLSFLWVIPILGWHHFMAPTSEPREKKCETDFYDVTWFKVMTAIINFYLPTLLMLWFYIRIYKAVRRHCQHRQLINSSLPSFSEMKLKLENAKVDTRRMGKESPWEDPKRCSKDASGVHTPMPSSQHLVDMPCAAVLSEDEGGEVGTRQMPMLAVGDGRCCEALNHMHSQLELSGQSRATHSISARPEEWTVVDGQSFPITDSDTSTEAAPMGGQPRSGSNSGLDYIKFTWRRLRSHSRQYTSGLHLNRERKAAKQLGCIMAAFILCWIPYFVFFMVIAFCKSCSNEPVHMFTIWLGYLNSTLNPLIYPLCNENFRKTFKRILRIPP

Row | Structure (SMILES) | Kb (H1 receptor; [1]) | IC50 (NK1 receptor) | Kb (H1 receptor) | IC50 (NK1 receptor; [2])
1 | COc1cc(C(=O)N2CCC(CCN3CCC(C(=O)c4nc5ccccc5n4Cc4ccc(F)cc4)CC3)(c3ccc(Cl)c(Cl)c3)C2)cc(OC)c1OC (centres unmarked) [Example 6, 1-(3,4,5-Trimethoxy-benzoyl)-3-[2-[4-[1-(4-fluoro-benzyl)-1 H-benzoimidazole-2-carbonyl]-piperidin-1-yl]-ethyl]-3-(3,4-dichloro-phenyl)-pyrrolidine] | 141 nM | 85 nM | – | –
2 | COc1cc(C(=O)N2CCC(CCN3CCC(C(=O)c4nc5ccccc5n4Cc4ccc(F)cc4)CC3)(c3ccc(Cl)c(Cl)c3)C2)cc(OC)c1OC (single isomer, unassigned; (+)) [Example 14, (+)-1-(3,4,5-Trimethoxy-benzoyl)-3-[2-[4-[1-(4-fluoro-benzyl)-1 H-benzoimidazole-2-carbonyl]-piperidin-1-yl]-ethyl]-3-(3,4-dichloro-phenyl)-pyrrolidine] | 50.1 nM | 29 nM | – | –
3 | COc1ccc(C2(CCN3CCC(C(=O)c4nc5ccccc5n4Cc4ccc(F)cc4)CC3)CCN(C(=O)c3ccccc3)C2)cc1OC (centres unmarked) [Example 2, 1-Benzoyl-3-[2-[4-[1-(4-fluoro-benzyl)-1 H-benzoimidazole-2-carbonyl]-piperidin-1-yl]-ethyl]-3-(3,4-dimethoxy-phenyl)-pyrrolidine] | – | – | 26.9 nM | –
4 | CCOCCn1c(C(=O)C2CCN(CCC3(c4ccccc4)CCN(C(=O)c4cc(OC)c(OC)c(OC)c4)C3)CC2)nc2ccccc21 (centres unmarked) [Example 40, 1-(3,4,5-Trimethoxy-benzoyl)-3-[2-[4-[1-(2-ethoxy-ethyl)-1 H-benzoimidazole-2-carbonyl]-piperidin-1-yl]-ethyl]-3-phenyl-pyrrolidine] | 41.7 nM | 24 nM | – | –
5 | COc1cc(CN2CCC(CCN3CCC(O)(c4nc5ccccc5n4Cc4ccc(F)cc4)CC3)(Cc3ccccc3)C2=O)cc(OC)c1OC (centres unmarked) [Example 53, 1-(3,4,5-Trimethoxy-benzyl)-3-[2-[4-[1-(4-fluoro-benzyl)-1H-benzoimidazol-2-yl]-4-hydroxy-piperidin-1-yl]-ethyl]-3-(phenylmethyl)-2-oxo-pyrrolidine] | 204 nM | 191 nM | – | –
6 | COc1cc(C(=O)N2CCC(CCN3CCC(C(=O)c4nc5ccccc5n4Cc4ccc(F)cc4)CC3)(c3ccccc3)C2)cc(OC)c1OC (centres unmarked) [Example 11, 1-(3,4,5-Trimethoxy-benzoyl)-3-[2-[4-[1-(4-fluoro-benzyl)-1 H-benzoimidazole-2-carbonyl]-piperidin-1-yl]-ethyl]-3-phenyl-pyrrolidine] | 33.9 nM | – | – | –
7 | COc1cc(C(=O)N2CCC(CCN3CCC(C(=O)c4nc5ccccc5n4CCOCc4ccco4)CC3)(c3ccccc3)C2)cc(OC)c1OC (centres unmarked) [Example 45, 1-(3,4,5-Trimethoxy-benzoyl)-3-[2-[4-[1-(2-fur-2-ylmethoxy-ethyl)-1 H-benzoimidazole-2-carbonyl]-piperidin-1-yl]-ethyl]-3-phenyl-pyrrolidine] | 35.5 nM | 9 nM | – | –
8 | COc1cc(C(=O)N2CCC(CCN3CCC(C(=O)c4nc5ccccc5n4Cc4ccc(F)cc4)CC3)(c3ccc(C(F)(F)F)cc3)C2)cc(OC)c1OC (centres unmarked) [Example 20, 1-(3,4,5-Trimethoxy-benzoyl)-3-[2-[4-[1-(4-fluoro-benzyl)-1 H-benzoimidazole-2-carbonyl]-piperidin-1-yl]-ethyl]-3-(4-trifluoromethyl-phenyl)-pyrrolidine] | 129 nM | 109 nM | – | –
9 | COc1ccc(C2(CCN3CCC(C(=O)c4nc5ccccc5n4Cc4ccc(C(=O)O)cc4)CC3)CCN(C(=O)c3cc(OC)c(OC)c(OC)c3)C2)cc1OC (centres unmarked) [Example 43] | 6760 nM | 48 nM | – | –
10 | COc1cc(C(=O)N2CCC(CCN3CCC(C(=O)c4nc5ccccc5n4Cc4ccc(F)cc4)CC3)(c3ccc(F)cc3F)C2)cc(OC)c1OC (centres unmarked) [Example 25, 1-(3,4,5-Trimethoxy-benzoyl)-3-[2-[4-[1-(4-fluoro-benzyl)-1 H-benzoimidazole-2-carbonyl]-piperidin-1-yl]-ethyl]-3-(2,4-difluoro-phenyl)-pyrrolidine] | 141 nM | 325 nM | – | –
11 | COc1cc(C(=O)N2CCC(CCN3CCC(C(=O)c4nc5ccccc5n4Cc4ccco4)CC3)(c3ccccc3)C2)cc(OC)c1OC (centres unmarked) [Example 44, 1-(3,4,5-Trimethoxy-benzoyl)-3-[2-[4-[1-(fur-2-ylmethyl)-1 H-benzoimidazole-2-carbonyl]-piperidin-1-yl]-ethyl]-3-phenyl-pyrrolidine] | 63.1 nM | 13 nM | – | –
12 | COc1ccc(C(=O)N2CCC(CCN3CCC(C(=O)c4nc5ccccc5n4Cc4ccc(F)cc4)CC3)(c3ccc4c(c3)OCO4)C2)c(OC)c1OC (centres unmarked) [Example 27, 1-(2,3,4-Trimethoxy-benzoyl)-3-[2-[4-[1-(4-fluoro-benzyl)-1 H-benzoimidazole-2-carbonyl]-piperidin-1-yl]-ethyl]-3-(benzo[1,3]dioxol-5-yl)-pyrrolidine] | 20.9 nM | 370 nM | – | –
13 | COc1cc(C(=O)N2CCC(CCN3CCC(O)(c4nc5ccccc5n4Cc4ccc(F)cc4)CC3)(c3ccc(Cl)c(Cl)c3)C2)cc(OC)c1OC (centres unmarked) [Example 7, 1-(3,4,5-Trimethoxy-benzoyl)-3-[2-[4-[1-(4-fluoro-benzyl)-1 H-benzoimidazol-2-yl]-4-hydroxy-piperidin-1-yl]-ethyl]-3-(3,4-dichloro-phenyl)-pyrrolidine] | – | 64 nM | 38.9 nM | –
14 | COc1cc(C(=O)N2CCC(CCN3CCC(C(=O)c4nc5ccccc5n4Cc4ccc(C(=O)O)cc4)CC3)(c3ccccc3)C2)cc(OC)c1OC (centres unmarked) [Example 39, 1-(3,4,5-Trimethoxy-benzoyl)-3-[2-[4-[1-(4-carboxy-benzyl)-1 H-benzoimidazole-2-carbonyl]-piperidin-1-yl]-ethyl]-3-phenyl-pyrrolidine] | 891 nM | 29 nM | – | –
15 | CCOCCn1c(C2(O)CCN(CCC3(c4ccc(Cl)c(Cl)c4)CCN(C(=O)c4cc(OC)c(OC)c(OC)c4)C3)CC2)nc2ccccc21 (single isomer, unassigned; (+)) [Example 81, (+)-1-(3,4,5-Trimethoxy-benzoyl)-3-[2-[4-[1-(2-ethoxy-ethyl)-1H-benzoimidazole]-4-hydroxy-piperidin-1-yl]-ethyl]-3-(3,4-dichloro-phenyl)-pyrrolidine] | 525 nM | 10 nM | – | –
16 | COc1ccc(C2(CCN3CCC(C(=O)c4nc5ccccc5n4Cc4ccc(F)cc4)CC3)CCN(C(=O)c3cc(OC)c(OC)c(OC)c3)C2)cc1OC (centres unmarked) [Example 1, 1-(3,4,5-Trimethoxy-benzoyl)-3-[2-[4-[1-(4-fluoro-benzyl)-1H-benzoimidazole-2-carbonyl]-piperidin-1-yl]-ethyl]-3-(3,4-dimethoxy-phenyl)-pyrrolidine] | 31.6 nM | – | – | 31 nM
17 | COc1cc(CN2CCC(CCN3CCC(O)(c4nc5ccccc5n4Cc4ccc(F)cc4)CC3)(Cc3ccc(F)cc3F)C2=O)cc(OC)c1OC (centres unmarked) [Example 58, 1-(3,4,5-Trimethoxy-benzyl)-3-[2-[4-[1-(4-fluoro-benzyl)-1H-benzoimidazol-2-yl]-4-hydroxy-piperidin-1-yl]-ethyl]-3-(2,4-difluoro-phenylmethyl)-2-oxo-pyrrolidine] | 151 nM | 345 nM | – | –
18 | CCOc1cc(C(=O)N2CCC(CCN3CCC(C(=O)c4nc5ccccc5n4Cc4ccc(F)cc4)CC3)(c3ccc(OC)c(OC)c3)C2)cc(OCC)c1OCC (centres unmarked) [Example 28, 1-(3,4,5-Triethoxy-benzoyl)-3-[2-[4-[1-(4-fluoro-benzyl)-1 H-benzoimidazole-2-carbonyl]-piperidin-1-yl]-ethyl]-3-(3,4-dimethoxy-phenyl)-pyrrolidine] | 20.4 nM | – | – | 1240 nM
19 | COc1ccc(CC2(CCN3CCC(O)(c4nc5ccccc5n4Cc4ccc(F)cc4)CC3)CCN(Cc3cc(OC)c(OC)c(OC)c3)C2=O)cc1OC (centres unmarked) [Example 55, 1-(3,4,5-Trimethoxy-benzyl)-3-[2-[4-[1-(4-fluoro-benzyl)-1H-benzoimidazol-2-yl]-4-hydroxy-piperidin-1-yl]-ethyl]-3-(3,4-dimethoxy-phenylmethyl)-2-oxo-pyrrolidine] | 912 nM | 385 nM | – | –
20 | COc1ccc(C2(CCN3CCC(C(O)(c4ccccc4)c4ccccc4)CC3)CCN(C(=O)c3cc(OC)c(OC)c(OC)c3)C2)cc1OC (centres unmarked) [Example 9, 1-(3,4,5-Trimethoxy-benzoyl)-3-[2-[4-(hydroxy-diphenyl-methyl)-piperidin-1-yl]-ethyl]-3-(3,4-dimethoxy-phenyl)-pyrrolidine] | 724 nM | 122 nM | – | –

Source: US6329392A, “Substituted piperidines useful for the treatment of allergic diseases” (Aventis Pharmaceuticals, Inc., priority 1998, dated 2001)
